Test results published in paper PMC4019984, “Kinase and channel activity of TRPM6 are co-ordinated by a dimerization motif and pocket interaction” (Biochemical Journal, 2014).

Columns and labels:
[1] = tested on: GST-tagged TRPM6-(1700–end); experiment: Phosphorylation site mapping of the dimerization peptide by TRPM6 kinase; assay type: biochemical, human; conditions: 500 μM biotinylated peptide, in vitro, trypsin digest, HPLC, Edman solid-phase sequencing
Procedure: A kinase reaction was set up in a volume of 20 μl, with the wild-type biotinylated dimerization peptide and the active (residues 1700–end) kinase fragment in buffer A containing 0.1% 2-mercaptoethanol, 10 mM MgCl2 and 0.1 mM [γ-^32P]ATP (~1000 cpm·pmol^−1). Assays were carried out for 30 min at 30°C with shaking at […] The reaction was terminated by the addition of LDS sample buffer. DTT was added to a final concentration of 10 mM, the samples were boiled, then alkylated with 50 mM iodoacetamide and subsequently resolved by a Bis-Tris 4–12% polyacrylamide gel, which was stained with Colloidal Coomassie Blue. […] Following tryptic digestion, more than 95% of the ^32P radioactivity incorporated in the gel bands was recovered, and the samples were chromatographed on a Vydac 218TP5215 C18 column (Separations Group) equilibrated in 0.1% trifluoroacetic acid in water. The column was developed with a linear acetonitrile gradient at a flow rate of 0.2 ml/min and fractions of 0.1 ml were collected and analysed for ^32P radioactivity by Cerenkov counting. Isolated phosphopeptides were analysed by MS analysis as follows. […] The five most intense ions, above a specified minimum signal threshold, based on a low-resolution (R=20000) preview of the survey scan, were fragmented by collision-induced dissociation and recorded in the linear ion trap (target value of 5000). […]

[2] = tested on: GST-tagged TRPM6-(1730–end) L1743A; experiment: Peptide pull-down, L1743A mutant; assay type: binding, human; conditions: HEK-293 lysate, 3 μg peptide, 4°C, anti-GST immunoblot
Procedure: The peptides biotin-C6-[…]-TIPFTPVQLFAGEEITV (wild-type) and biotin-C6-LKSPQE-[…] (mutant) were purchased from GL Biochem. For a peptide pull-down, 1–5 mg of lysate was incubated with 3 μg of the respective peptide for 10 min at 4°C under gentle agitation, followed by 5 min of incubation with 10–20 μl of streptavidin beads at 4°C. The immunoprecipitates were washed three times with lysis buffer containing 0.15 M NaCl and then twice with buffer A. Proteins were eluted by resuspending washed immunoprecipitates in 30 μl of SDS sample buffer. […]
Figure 3 Analysis of the dimerization pocket residues (A) Structural model of TRPM6 based on TRPM7 α-kinase depicting the binding of Leu^1718 and Leu^1721 to other residues in the α-kinase domain. […] The samples were analysed by immunoblotting with anti-GST antibody (top panel). […] (C) Fluorescence polarization analysis of the dimerization motif peptide with E. coli purified GST-tagged TRPM6-(1730–end) and indicated mutants. […] Proteins were separated by SDS/PAGE, stained with Coomassie Blue (top and middle panels) and MBP phosphorylation was detected by autoradiography (bottom panel). […] Proteins were separated by SDS/PAGE, stained with Coomassie Blue (top and middle gels) and MBP phosphorylation was detected by autoradiography (bottom gel). […]

## biotin-C6-LKSPQEPHHHYSAIERNNLMRLSQ-TIPFTPVQLFAGEEITV [biotinylated dimerization motif peptide, biotin-C6 wild-type dimerization motif peptide; conjugated to streptavidin–Sepharose]
[1]
  phosphorylation site in dimerization motif peptide: threonine at position 22
[2]
  binding to biotinylated dimerization motif peptide (pull-down): abolished binding to the peptide
